# According to paper PMC12867150, “A fungi-derived cyclic peptide enhances Th9-mediated antitumor immunity by targeting ZAP70 and SREBP1” (The Journal of Clinical Investigation, 2025):
# Values joined by “and” are separate entries in the source; they are usually repeats but may differ in a detail not shown here. Equal values may be shown once.
# Experiments:
# PD-1 on T cells = experiment: PD-1 expression on donor Th9 and endogenous CD8+/CD4+ T cells from spleens (S4J-L); assay type: in vivo, mouse; conditions: for Expression of PD-1 of transferred CD45.1⁺ OT-II Th9 cells in spleen: Supplemental Figure 4J; for Expression of PD-1 of endogenous CD8⁺ T cells in spleen: Supplemental Figure 4K; for Expression of PD-1 of endogenous CD4⁺ T cells in spleen: Supplemental Figure 4L
# Method: C57BL/6 mice were subcutaneously injected with 5 × 10^5 B16-OVA melanoma cells. Five days after tumor implantation, mice received an intravenous infusion of 2 × 10^6 in vitro–differentiated Th9 cells (cultured for 5 days), which were derived from OT-II CD45.1 donor mice, accompanied by 4 × 10^5 OVA peptide–pulsed DCs via the tail vein. To enhance T cell engraftment and facilitate lymphodepletion, a single intraperitoneal injection of cyclophosphamide (200 mg/kg, Sigma, catalog C0768) was administered 1 day prior to T cell transfer. Mice were euthanized at designated time points for the collection and analysis of spleens, tumor-draining lymph nodes, and tumor tissues.
# Details regarding staining panels (human and mouse), reagents (including clones and catalog numbers), acquisition settings, compensation/controls, and analysis procedures are provided in Supplemental Methods.
# CD45.1+ T Cells in Tumors
# CtrlEpA Ctrl EpA GzmB Ctrl EpA
# CtrlEpA CtrlEpA GzmB Ctrl EpA
# J CD45.1+ T Cells in Spleens K CD8+ T Cells in Spleens L CD4+ T Cells in Spleens […]
# PD-1 0 CtrlEpA PD-1 0 CtrlEpA PD-1 0 CtrlEpA […]
# cells and endogenous T cells.
# (A–C) Mean fluorescence intensity (MFI) of IFN-γ (A) and TNF-α (B), and representative flow-cytometric plots with quantification of Granzyme B⁺ Perforin⁺ cells (C) among adoptively transferred CD45.1⁺ Th9 cells in tumors. (D–F) MFI of IFN-γ (D) and TNF-α (E), and representative plots with quantification of Granzyme B⁺ Perforin⁺ cells (F) among tumor-infiltrating CD8⁺ T cells. (G–I) MFI of IFN-γ (G) and TNF-α (H), and representative plots with quantification of Granzyme B⁺ Perforin⁺ cells (I) among tumor-infiltrating CD4⁺ T cells. (J–L) PD-1 expression in adoptively transferred CD45.1⁺ Th9 cells (J), endogenous CD8⁺ T cells (K), and endogenous CD4⁺ T cells (L) from spleens of tumor-bearing mice. Data in (A–L) are shown as mean ± SEM from n = 4 mice per group. Statistical analysis was performed using two-tailed unpaired Student’s t-test (A–L). ns, not significant. *p < 0.05, **p […]
# (also on this page, place not known: IFN -γ MFIofTNF-α CtrlEpACtrlEpA MFIofIFN-γ 1500MFIofTNF-α MFIofIFN-γ 800MFIofTNF-α CtrlEpA0 CtrlEpA0 CtrlEpA0 MFI of (×103Ď CtrlEpA0 MFI of PD-1 (×103) MFI of PD-1 (×103) CtrlEpAPD-1 HG FE GzmB+ PRF1+ of CD45.1+ cells (%) GzmB+ PRF1+ of CD8+ cells (%) GzmB+ PRF1+ of CD4+ cells (%) PRF1 PRF1 PRF1 0.3887.5 MFIofIFN-γ) […]
# Th9 cells = experiment: IL-9+ Th9 cells with MEK or ERK inhibition (Figure 5H); assay type: cell-based, mouse; conditions: for IL-9 (flow cytometric quantification): Figure 5H, individual replicates, (n = 5)
# Method: (A) Identification and ranking of EpA-interacting proteins by affinity pulldown and LC-MS/MS, ordered by in silico binding energy predictions. […] (E) Flow-cytometric analysis of phosphorylated ZAP70 in Th9 cells 10 minutes after TCR activation (mean ± SEM, n = 3). (F) Pathway enrichment analysis of RNA-seq data showing MAPK/ERK-related pathways in EpA-treated Th9 cells. (G) Immunoblot analysis of total and phosphorylated MEK1/2 and ERK1/2 in control and EpA-treated Th9 cells. (H–L) Functional consequences of MEK or ERK inhibition in EpA-treated Th9 cells. […] Data in H–K are shown as mean ± SEM (n = 5) and in L as mean ± SEM (n = 3). Statistical significance was determined using 1-way ANOVA followed by Tukey’s test (E, H–L). *P < 0.05, **P < 0.01, ***P < 0.001, ****P < 0.0001.
# T cell polarization was initiated under plate-bound anti-CD3 (2 μg/mL, clone 17A2, BioXCell, catalog BE0002) and soluble anti-CD28 (1 μg/mL, clone 37.51, BioXCell, catalog BE0015-1) stimulation, with the addition of cytokines and neutralizing antibodies specific to each subset. For Th9 cells, these included IL-4 (10 ng/mL, Peprotech, catalog 400-04), TGF-β (1 ng/mL, EPOTO Biotech, catalog HF-2021), anti–IL-12 (5 μg/mL, clone C17.8, BioXCell, catalog BE0051), and anti–IFN-γ (10 μg/mL, clone XMG1.2, BioXCell, catalog BE0055); for Th1 cells, these included IL-12 (10 ng/mL, GenScript, catalog Z03211-50) and anti–IL-4 (5 μg/mL, clone 11B11, BioXCell, catalog BE0045); for Th2 cells, these included IL-4 (50 ng/mL), anti–IFN-γ (20 μg /mL), anti–IL-12 (5 μg/mL), Th17 cells: IL-6 (20 ng/mL, EPOTO Biotech, catalog MF-1006), TGF-β (1 ng/mL), IL-1β (10 ng/mL, Peprotech, catalog AF-211-11B), anti–IFN-γ (10 μg/mL), anti–IL-12 (5 μg/mL), and anti–IL-4 (5 μg/mL); and for Tregs, these included TGF-β (3 ng/mL). After 3 days of initial culture, cells were either collected for downstream assays or continued in extended culture with refreshed cytokines to maintain lineage commitment.
# The following pharmacological inhibitors were used at the indicated final concentrations: trametinib (MEK1/2 inhibitor; Selleck, catalog S4484) at 10 nM; temuterkib (ERK1/2 inhibitor; MCE, catalog HY-101494) at 100 nM; and fatostatin hydrobromide (SREBP inhibitor; MCE, catalog HY-14452A) at 5 μM. Dead cells were detected using Fixable Viability Dye eFluor 780 (eBioscience, catalog 65-0865).
substance,measurement,setting,value
anteiso-C15 Leu7 surfactin [EpA],PD-1 expression,"PD-1 on T cells; donor Th9 and endogenous T cells, result in words",comparable between groups
same,Expression of PD-1 of transferred CD45.1⁺ OT-II Th9 cells in spleen,PD-1 on T cells; replicate 1,5868
same,Expression of PD-1 of transferred CD45.1⁺ OT-II Th9 cells in spleen,PD-1 on T cells; replicate 2,7923
same,Expression of PD-1 of transferred CD45.1⁺ OT-II Th9 cells in spleen,PD-1 on T cells; replicate 3,10955
same,Expression of PD-1 of transferred CD45.1⁺ OT-II Th9 cells in spleen,PD-1 on T cells; replicate 4,4100
same,Expression of PD-1 of endogenous CD8⁺ T cells in spleen,PD-1 on T cells; replicate 1,1931
same,Expression of PD-1 of endogenous CD8⁺ T cells in spleen,PD-1 on T cells; replicate 2,1939
same,Expression of PD-1 of endogenous CD8⁺ T cells in spleen,PD-1 on T cells; replicate 3,2374
same,Expression of PD-1 of endogenous CD8⁺ T cells in spleen,PD-1 on T cells; replicate 4,1655
same,Expression of PD-1 of endogenous CD4⁺ T cells in spleen,PD-1 on T cells; replicate 1,6299
same,Expression of PD-1 of endogenous CD4⁺ T cells in spleen,PD-1 on T cells; replicate 2,5672
same,Expression of PD-1 of endogenous CD4⁺ T cells in spleen,PD-1 on T cells; replicate 3,6004
same,Expression of PD-1 of endogenous CD4⁺ T cells in spleen,PD-1 on T cells; replicate 4,4982
same,IL-9 (flow cytometric quantification),Th9 cells; EpA + ERKin combination,5.8 and 5.06 and 4.72 and 7.22 and 6.36
same,IL-9 (flow cytometric quantification),Th9 cells; EpA + MEKin combination,0.49 and 3.03 and 0.46 and 0.71 and 0.77
same,IL-9 (flow cytometric quantification),Th9 cells; single agent,50.6 and 51.1 and 72.2 and 66.2 and 42.3
same,IL-9 production,"Th9 cells; trametinib 10 nM, temuterkib 100 nM, result in words",unable to restore it
